Counter-ions that a name gives are not always drawn.
Biological target: T1, Human TRPV3 (Homo sapiens, UniProt Q8NET8)
T1 construct: expressed in transfected cells; host or cells: CHO cells (selected with G-418)
T1 sequence (Q8NET8 1-790): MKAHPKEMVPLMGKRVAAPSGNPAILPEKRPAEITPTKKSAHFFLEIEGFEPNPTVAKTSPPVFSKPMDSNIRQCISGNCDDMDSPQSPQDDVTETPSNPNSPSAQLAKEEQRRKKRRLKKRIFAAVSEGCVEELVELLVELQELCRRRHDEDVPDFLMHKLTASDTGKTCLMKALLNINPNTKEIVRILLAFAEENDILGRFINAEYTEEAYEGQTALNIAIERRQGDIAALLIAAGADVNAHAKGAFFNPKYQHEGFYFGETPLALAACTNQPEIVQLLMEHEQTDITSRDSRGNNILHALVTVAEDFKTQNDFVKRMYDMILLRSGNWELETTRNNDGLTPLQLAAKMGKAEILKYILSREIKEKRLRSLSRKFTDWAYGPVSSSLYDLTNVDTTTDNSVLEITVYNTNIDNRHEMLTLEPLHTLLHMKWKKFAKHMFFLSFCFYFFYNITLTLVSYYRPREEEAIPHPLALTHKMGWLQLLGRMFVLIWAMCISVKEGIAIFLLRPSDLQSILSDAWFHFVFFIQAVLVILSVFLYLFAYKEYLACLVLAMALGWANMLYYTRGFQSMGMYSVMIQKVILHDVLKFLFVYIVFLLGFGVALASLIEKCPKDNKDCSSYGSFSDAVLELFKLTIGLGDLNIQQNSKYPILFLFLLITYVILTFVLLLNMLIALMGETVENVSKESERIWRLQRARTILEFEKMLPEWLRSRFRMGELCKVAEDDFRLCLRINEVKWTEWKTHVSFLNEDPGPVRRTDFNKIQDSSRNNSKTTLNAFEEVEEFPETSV
Test: Screening for TRPV3 antagonist using the 45Calcium uptake assay (inhibition of 2-APB induced cellular uptake of radioactive calcium)
Type: cell-based
Conditions: Human TRPV3 expressing CHO cells, 2-APB 500 μM; for inhibition at 1 µM / inhibition at 10 µM: CHO; for inhibition at 1 µM: read-out: Percentage inhibition at 1.0 μM; for inhibition at 10 µM: read-out: Percentage inhibition at 10.0 μM
From the text: The illustrative examples of the present invention are screened for TRPV3 activity according to a modified procedure described in Tóth, A., Kedei, N., Wang, Y. and Blumberg, P. M. Life Sciences (2003), 73, 487-498. The screening of the compounds can be carried out by other methods and procedures known to a person skilled in the art. Such screening methods may be found in (a) Hu, H.-Z. et al. J. Biol. Chem. (2004), 279, 35741-35747; (b) Smith, G. D. et al. Nature (2002), 418, 186-190; (c) Peier, A. M. et al. Science (2002), 296, 2046-2049.
Screening for TRPV3 Antagonist Using the ^45Calcium Uptake Assay:
The inhibition of TRPV3 receptor activation was followed as inhibition of 2-aminoethxydiphenylborate (2-APB) induced cellular uptake of radioactive calcium. Test compounds were dissolved in dimethyl sulfoxide (DMSO) to prepare 20 mM stock solution and then diluted using plain medium with DMEM/F-12 containing 1.8 mM CaCl2 to get desired concentration. Final concentration of DMSO in the reaction was 0.5% (v/v). Human TRPV3 expressing CHO cells were grown in DMEM/F-12 medium with 10% FBS, 1% penicillin-streptomycin solution, 400 μg/ml of G-418. Cells were seeded 24 h prior to the assay in 96 well plates so as to get ˜50,000 cells per well on the day of experiment. Cells were treated with test compounds for 10 minutes followed by addition of 2-APB at a final concentration of 500 μM and 5 μCi/ml ^45Ca^+2 for 4 minutes. Cells were washed and lysed using buffer containing 1% Triton X-100, 0.1% deoxycholate and 0.1% SDS. Radioactivity in the lysate was measured in Packardt Top count after addition of liquid scintillant. Concentration response curves were plotted as a % of maximal response obtained in the absence of test antagonist. IC50 value was calculated from concentration response curve by nonlinear regression analysis using GraphPad PRISM software.
Percentage inhibition at concentrations of 1.0 μM and 10.0 μM are given in the table along with IC50 (nM) values for selected examples.

Row | inhibition at 1 µM (1.0 μM test compound) [%] | inhibition at 10 µM (10.0 μM test compound) [%] | IC50 [µM] | Percentage inhibition at 1.0 μM (1.0 μM test compound) [%] | Percentage inhibition at 10.0 μM (10.0 μM test compound) [%] | Compound
1 | 87.9 | 96.5 | < 0.5 |  |  | CCCCCOc1c(/C=C/c2nc3ccccn3c(=O)c2-c2ccc(C#N)cc2)cccc1OC [Example 12, 4-{2-[(E)-2-[3-Methoxy-2-pentyloxyphenyl)vinyl]-4-oxo-4H-pyrido[1,2-a]pyrimidin-3-yl}benzonitrile]
2 | 20.6 | 3.6 | 1 to 2.5 |  |  | COc1cccc(/C=C/c2nc3ccccn3c(=O)c2-c2ccc(OC(F)(F)F)cc2)c1OC1CCCC1 [Example 24, 2-{(E)-2-[(2-Cyclopentyloxy-3-methoxy)phenyl]vinyl}-3-(4-trifluoromethoxy)phenyl-4H-pyrido[1,2-a]pyrimidin-4-one]
3 | 23.1 | 18.7 |  |  |  | COc1cccc(/C=C/c2nc3c(C)cccn3c(=O)c2-c2ccc(C(F)(F)F)cc2)c1OC1CCCC1 [Example 40, 2-{(E)-2-[(2-Cyclopentyloxy-3-methoxy)phenyl]vinyl}-9-methyl-3-(4-trifluoromethyl)phenyl-4H-pyrido[1,2-a]pyrimidin-4-one]
4 | 22.7 | 34.6 |  |  |  | COc1cccc(/C=C/c2nc3ccccn3c(=O)c2-c2cccc(C(F)(F)F)c2)c1OC1CCCC1 [Example 22, 2-{(E)-2-[(2-Cyclopentyloxy-3-methoxy)phenyl]vinyl}-3-(3-trifluoromethyl)phenyl-4H-pyrido[1,2-a]pyrimidin-4-one]
5 | 25.3 | 74 |  |  |  | O=c1c(-c2ccc(C(F)(F)F)cc2)c(/C=C/c2cccc3c2OCO3)nc2ccccn12 [Example 4, 2-[(E)-2-(1,3-Benzodioxol-4-yl)vinyl]-3-[4-(trifluoromethyl)phenyl]-4H-pyrido[1,2-a]pyrimidin-4-one]
6 | 0 | 96.8 |  |  |  | COc1cccc(/C=C/c2nc3ccc(Cl)cn3c(=O)c2-c2ccc(C#N)cc2)c1OCC1CC1 [Example 42]
7 | 20.7 | 93.1 | 1 to 2.5 |  |  | COc1cccc(/C=C/c2nc3ccccn3c(=O)c2-c2cccc(O)c2)c1OC1CCCC1 [Example 25, 2-{(E)-2-[2-(Cyclopentyloxy-3-methoxy)phenyl]vinyl}-3-(3-hydroxy)phenyl-4H-pyrido-[1,2-a]-pyrimidin-4-one]
8 |  |  | < 0.5 | 83.5 | 94.7 | COc1cccc(/C=C/c2nc3ccccn3c(=O)c2-c2ccc(C#N)cc2)c1OC1CCCC1 [Example 28, 4-{2-[(E)-2-(2-Cyclopentyloxy-3-methoxyphenyl)vinyl]-4-oxo-4H-pyrido[1,2-a]-pyrimidin-3-yl}benzonitrile]
9 | 69 | 86.5 |  |  |  | CCCCCOc1c(/C=C/c2nc3ccccn3c(=O)c2-c2ccc(C(F)(F)F)cc2)cccc1OC [Example 11]
10 | 87.8 | 98.7 | < 0.5 |  |  | COc1cccc(/C=C/c2nc3ccccn3c(=O)c2-c2ccc(C#N)cc2)c1OCC1CC1 [Example 19]
11 | 45.9 | 76.7 | 1 to 2.5 |  |  | COc1cccc(/C=C/c2nc3ccccn3c(=O)c2-c2ccccc2)c1OC1CCCC1 [Example 20, 2-{(E)-2-[2-(Cyclopentyloxy)-3-methoxyphenyl]vinyl}-3-phenyl-4H-pyrido[1,2-a]-pyrimidin-4-one]
12 | 71.5 | 67.5 |  |  |  | CCCOc1c(/C=C/c2nc3ccccn3c(=O)c2-c2ccc(C(F)(F)F)cc2)cccc1OC [Example 6]
13 | 55.5 | 83.8 | < 0.5 |  |  | COc1cccc(/C=C/c2nc3ccccn3c(=O)c2-c2ccc3c(c2)OCCO3)c1OC1CCCC1 [Example 38, 2-[(E)-2-(2-Cyclopentyloxy-3-methoxyphenyl)vinyl]-3-(2,3-dihydro-1,4-benzodioxin-6-yl)-4H-pyrido[1,2-a]pyrimidin-4-one]
14 | 0 | 31.7 |  |  |  | COc1cccc(/C=C/c2nc3ccccn3c(=O)c2-c2ccc(C(F)(F)F)cc2)c1OCCN(C)C [Example 15, 2-[(E)-2-{2-[2-(Dimethylamino)ethoxy]-3-methoxyphenyl}vinyl]-3-(4-trifluoromethylphenyl)-4H-pyrido[1,2-a]pyrimidin-4-one hydrochloride]
15 | 50.4 | 96.2 |  |  |  | COc1cccc(/C=C/c2nc3ccccn3c(=O)c2-c2cccc(NC(C)=O)c2)c1OC1CCCC1 [Example 31, N-(3-{2-[(E)-2-(2-Cyclopentyloxy-3-methoxy)phenylvinyl]-4-oxo-4H-pyrido[1,2-a]pyrimidin-3-yl}phenyl)acetamide]
16 | 36.8 | 51.3 |  |  |  | COc1cccc(/C=C/c2nc3ccccn3c(=O)c2-c2ccc(SC)cc2)c1OC1CCCC1 [Example 34, 2-{(E)-2-[(2-Cyclopentyloxy-3-methoxy)phenyl]vinyl}-3-(4-thiomethyl)phenyl-4H-pyrido[1,2-a]pyrimidin-4-one]
17 | 58 | 77.3 |  |  |  | CCCCCCOc1c(/C=C/c2nc3ccccn3c(=O)c2-c2ccc(C(F)(F)F)cc2)cccc1OC [Example 13]
18 | 27.2 | 39.3 |  |  |  | COc1cccc(/C=C/c2nc3ccccn3c(=O)c2-c2cc(F)cc(F)c2)c1OC1CCCC1 [Example 21, 2-{(E)-2-[2-(Cyclopentyloxy-3-methoxy)phenyl]vinyl}-3-(3,5-difluoro) phenyl-4H-pyrido[1,2-a]pyrimidin-4-one]

Row | Compound | inhibition at 1 µM (1.0 μM test compound) [%] | inhibition at 10 µM (10.0 μM test compound) [%] | IC50 [µM] | Percentage inhibition at 1.0 μM (1.0 μM test compound) [%] | Percentage inhibition at 10.0 μM (10.0 μM test compound) [%]
19 | CCCCOc1c(/C=C/c2nc3ccccn3c(=O)c2-c2ccc(OC(F)(F)F)cc2)cccc1OC [Example 9, 2-[(E)-2-[2-Butoxy-3-methoxyphenyl)vinyl]-3-[4-(trifluoromethoxy)phenyl]-4H-pyrido-[1,2-a]pyrimidin-4-one] | 74.6 | 89 | 0.5 to 1 |  | 
